Broadly, the EC50 is the concentration that produces a half-maximal response.

The first assay relates to HEK293T cells carrying the ATF4 luciferase reporter. The assay can be described thus: ATF4-Luc assay (in vitro model of VWMD). In kind it is cell-based, human. As to conditions: 1 μg/mL tunicamycin, 7 hours, One Glo luminescence. On the procedure: In order to test exemplary compounds of the invention in a cellular context, a stable VWMD cell line was first constructed. The ATF4 reporter was prepared by fusing the human full-length ATF4 5′-UTR (NCBI Accession No. BC022088.2) in front of the firefly luciferase (FLuc) coding sequence lacking the initiator methionine as described in Sidrauski et al (eLife 2013). The construct was used to produce recombinant retroviruses using standard methods and the resulting viral supernatant was used to transduce HEK293T cells, which were then subsequently selected with puromycin to generate a stable cell line.
HEK293T cells carrying the ATF4 luciferase reporter were plated on polylysine coated 384-well plates (Greiner Bio-one) at 30,000 cells per well. Cells were treated the next day with 1 μg/mL tunicamycin and 200 nM of a compound of Formula (I) for 7 hours. Luminescence was measured using One Glo (Promega) as specified by the manufacturer. Cells were maintained in DMEM with L-glutamine supplemented with 10% heat-inactivated FBS (Gibco) and Antibiotic-Antimycotic solution (Gibco).
Table 4 below summarizes the EC50 data obtained using the ATF4-Luc assay for exemplary compounds of the invention.
Take `O=C(NC12CC(N3CCC(c4ccc(Cl)cc4)C3=O)(C1)C2)[C@H]1C[C@@H](O)c2cc(Cl)ccc2O1` (single isomer, unassigned) [Compound 226, (2R,4R)-6-chloro-N-{3-[(3S*)-3-(4-chlorophenyl)-2-oxopyrrolidin-1-yl]bicyclo[1.1.1]pentan-1-yl}-4-hydroxy-3,4-dihydro-2H-1-benzopyran-2-carboxamide]: the EC50 fell in the range of 500 to 2000 nM.

Still in this assay, the particulars now being: Homo sapiens, HEK-293T, 1 μg/mL tunicamycin, 7 hours, One Glo luminescence.
With `O=C(COc1ccc(Cl)c(F)c1)NC12CC(c3nnc([C@H]4C[C@@H](O)c5cc(Cl)ccc5O4)o3)(C1)C2` (racemic) [Compound 166, 2-(4-chloro-3-fluorophenoxy)-N-(3-{5-[rac-(2R,4R)-6-chloro-4-hydroxy-3,4-dihydro-2H-1-benzopyran-2-yl]-1,3,4-oxadiazol-2-yl}bicyclo[1.1.1]pentan-1-yl)acetamide], the EC50 was under 10 nM.
Still for that read-out and setting: the value for `O=C(COc1ccc(Cl)c(F)c1)N[C@H]1C[C@H]2O[C@@H]1C[C@@H]2c1nnc([C@H]2C[C@@H](OC(F)(F)F)C2)o1` (racemic) [Compound 168, 2-(4-chloro-3-fluorophenoxy)-N-[rac-(1R,2S,4R,5S)-5-{5-[cis-3-(trifluoromethoxy)cyclobutyl]-1,3,4-oxadiazol-2-yl}-7-oxabicyclo[2.2.1]heptan-2-yl]acetamide] was 250 to 500 nM.
For `O=C(NC12CCC(c3nnc([C@H]4C[C@@H](OC(F)(F)F)C4)o3)(CC1)CC2)[C@H]1C[C@@H](O)c2cc(Cl)ccc2O1` (racemic) [Compound 171, rac-(2R,4R)-6-chloro-4-hydroxy-N-(4-{5-[cis-3-(trifluoromethoxy)cyclobutyl]-1,3,4-oxadiazol-2-yl}bicyclo[2.2.2]octan-1-yl)-3,4-dihydro-2H-1-benzopyran-2-carboxamide], the EC50 was under 10 nM.
Same read-out and setting: for `O=C(N[C@@H]1C[C@@H]2O[C@H]1C[C@H]2c1nnc([C@H]2C[C@@H](OC(F)(F)F)C2)o1)[C@@H]1C[C@@H](O)c2cc(Cl)ccc2O1` (racemic) [Compound 185, (2S,4R)-6-chloro-4-hydroxy-N-[(1RS,2SR,4RS,5SR)-5-{5-[cis-3-(trifluoromethoxy)cyclobutyl]-1,3,4-oxadiazol-2-yl}-7-oxabicyclo[2.2.1]heptan-2-yl]-3,4-dihydro-2H-1-benzopyran-2-carboxamide] the value was over 2000 nM; for `O=C(N[C@@H]1C[C@@H]2O[C@H]1C[C@H]2c1nnc([C@H]2C[C@@H](OC(F)(F)F)C2)o1)[C@@H]1C[C@H](O)c2cc(Cl)ccc2O1` (racemic) [Compound 186], 10 to 50 nM.
On the same count and under the same terms, the value for `O=C(N[C@@H]1CC[C@@H](c2nnc([C@H]3C[C@@H](OC(F)(F)F)C3)o2)OC1)[C@@H]1C[C@H](O)c2cc(Cl)ccc2O1` (relative stereo) [Compound 170, (2S,4S)-6-chloro-4-hydroxy-N-[(3R,6S)-6-{5-[cis-3-(trifluoromethoxy)cyclobutyl]-1,3,4-oxadiazol-2-yl}oxan-3-yl]-3,4-dihydro-2H-1-benzopyran-2-carboxamide] was 250 to 500 nM; that for `O=C(CO[C@H]1C[C@@H](OC(F)(F)F)C1)N[C@H]1C[C@H]2C[C@@H]1C[C@@H]2NC(=O)[C@H]1C[C@@H](O)c2cc(Cl)ccc2O1` (relative stereo) [Compound 210, (2R,4R)-6-chloro-4-hydroxy-N-[(1R*,2S*,4R*,5S*)-5-(2-{[cis-3-(trifluoromethoxy)cyclobutyl]oxy}acetamido)bicyclo[2.2.1]heptan-2-yl]-3,4-dihydro-2H-1-benzopyran-2-carboxamide] was under 10 nM.
On the same count and under the same terms, for `O=C(CO[C@H]1C[C@@H](OC(F)(F)F)C1)N[C@@H]1C[C@@H]2C[C@H]1C[C@H]2NC(=O)[C@H]1C[C@@H](O)c2cc(Cl)ccc2O1` (relative stereo) [Compound 211, (2R,4R)-6-chloro-4-hydroxy-N-[(1S*,2R*,4S*,5R*)-5-(2-{[cis-3-(trifluoromethoxy)cyclobutyl]oxy}acetamido)bicyclo[2.2.1]heptan-2-yl]-3,4-dihydro-2H-1-benzopyran-2-carboxamide] the value was under 10 nM; for `O=C(COc1ccc(Cl)c(F)c1)NC12CC(c3nnc([C@H]4C[C@@H](O)c5cc(Cl)ccc5O4)o3)(C1)C2` (relative stereo) [Compound 252, 2-(4-chloro-3-fluorophenoxy)-N-(3-{5-[(2R*,4R*)-6-chloro-4-hydroxy-3,4-dihydro-2H-1-benzopyran-2-yl]-1,3,4-oxadiazol-2-yl}bicyclo[1.1.1]pentan-1-yl)acetamide], under 10 nM.
With `O=C(COc1ccc(Cl)c(F)c1)NC12CC(c3nnc([C@@H]4C[C@H](O)c5cc(Cl)ccc5O4)o3)(C1)C2` (relative stereo) [Compound 253, 2-(4-chloro-3-fluorophenoxy)-N-(3-{5-[(2S*,4S*)-6-chloro-4-hydroxy-3,4-dihydro-2H-1-benzopyran-2-yl]-1,3,4-oxadiazol-2-yl}bicyclo[1.1.1]pentan-1-yl)acetamide], the EC50 lay in the range of 10 to 50 nM.
As for `O=C(NC12CC(c3nc(-c4ccc(Cl)c(F)c4)no3)(C1)C2)[C@@H]1C[C@H](O)c2cc(Cl)ccc2O1` (single isomer, unassigned) [Compound 199], the EC50 lay in the range of 50 to 250 nM.
Turning to `O=C(NC12CC(n3cnc(-c4ccc(C(F)(F)F)nc4)c3)(C1)C2)[C@@H]1C[C@H](O)c2cc(Cl)ccc2O1` (single isomer, unassigned) [Compound 200], the EC50 is 50 to 250 nM.
Same read-out and setting: for `O=C(NC12CC(c3nc(-c4ccc(Cl)c(F)c4)no3)(C1)C2)[C@H]1C[C@@H](O)c2cc(Cl)ccc2O1` (single isomer, unassigned) [Compound 202] the value was under 10 nM.
Same read-out and setting: for `O=C(NC12CC(N3CCC(c4ccc(Cl)cc4)C3=O)(C1)C2)[C@H]1C[C@@H](O)c2cc(Cl)ccc2O1` (single isomer, unassigned) [Compound 225, (2R,4R)-6-chloro-N-{3-[(3R*)-3-(4-chlorophenyl)-2-oxopyrrolidin-1-yl]bicyclo[1.1.1]pentan-1-yl}-4-hydroxy-3,4-dihydro-2H-1-benzopyran-2-carboxamide] the value was 500 to 2000 nM; for `O=C(CO[C@H]1C[C@@H](OC(F)(F)F)C1)NC12CCC(NC(=O)[C@@H]3C[C@@H](O)c4cc(Cl)ccc4O3)(CC1)C[C@@H]2O` (single isomer, unassigned) [Compound 279], under 10 nM.
Consider `O=C(CO[C@H]1C[C@@H](OC(F)(F)F)C1)NC12CC(NC(=O)[C@H]3C[C@H](O)c4cc(Cl)ccc4O3)(C1)C2` (single isomer, unassigned) [Compound 293], for which the EC50 is under 10 nM.
Regarding `O=C1CC(C(=O)N[C@H]2C[C@H]3CC[C@@H](C2)N3CCCOc2ccc(Cl)cc2)Oc2ccc(Cl)cc21` (some centres unmarked) [Compound 101], the EC50 was over 2000 nM.
The same measure, in the same setting: the value for `CN(C(=O)COc1ccc(Cl)c(F)c1)[C@H]1CC[C@H](NC(=O)[C@H]2C[C@@H](O)c3cc(Cl)ccc3O2)CC1` [Compound 102, (2R,4R)-6-chloro-N-[(1r,4R)-4-{[(4-chloro-3-fluorophenoxy)acetyl](methyl)amino}cyclohexyl]-4-hydroxy-3,4-dihydro-2H-1-benzopyran-2-carboxamide] was 10 to 50 nM; that for `O=C(COc1ccc(Cl)c(F)c1)NC12CC(C(=O)NCC3CC(=O)c4cc(Cl)ccc4O3)(C1)C2` (centres unmarked) [Compound 103, 3-[2-(4-chloro-3-fluorophenoxy)acetamido]-N-[(6-chloro-4-oxo-3,4-dihydro-2H-1-benzopyran-2-yl)methyl]bicyclo[1.1.1]pentane-1-carboxamide] was 50 to 250 nM.

These data come from patent US20200347043A1, “MODULATORS OF THE INTEGRATED STRESS PATHWAY” (Calico Life Sciences LLC, priority 2019, published 2020).
